One substance from patent publication US20250136618A1, “ANTIBIOTIC PYRAZINOTHIAZINE DERIVATIVES AND PROCESS OF PREPARATION THEREOF” (Bugworks Research India PVT Ltd, priority 2021, published 2025) can be followed below.

Common to all, as to type: cell-based
The test system of data set [1] is Acinetobacter baumannii ATCC 19606. Nature of the data set: Minimum Inhibitory Concentration (MIC) in LB media. The text has this: (§1) The compounds of Formula Ia and Formula Ib are of interest due to their potent antibacterial effects. The ability of the compounds disclosed herein to achieve an antibacterial effect may be evaluated with regard to their ability to inhibit the growth of bacterial species like Escherichia coli ATCC 25922, Staphylococcus aureus ATCC 29213, Klebsiella pneumoniae ATCC 13883, Acinetobacter baumannii ATCC 19606, Pseudomonas aeruginosa ATCC 27853 and Enterococcus faecalis ATCC 29212 using an assay based on the following Minimum Inhibitory Concentration (MIC) protocol:
(§2) The test bacteria were grown in Luria Bertani Broth (HIMEDIA M1245), 25 g of the powder was dissolved in 1000 ml distilled water and sterilized by autoclaving at 15 lbs pressure (121° C.) for 20 minutes. The medium sterility was checked by incubating at 37° C. for a period of 48 h. Bacterial cultures that were stored as glycerol stocks at −80° C. were subcultured on LB agar plates to obtain isolated colonies. A single colony of each strain was cultured in LB broth. The cultures were incubated at 37° C., 200 rpm till they reached an optical density (OD at 600 nm) of 0.8 to 1. This log phase culture was diluted in LB broth to a cell number of 5-8*10^5 CFU/mL to be used as inoculum for MIC experiments. Test compounds were dissolved in dimethyl sulfoxide (DMSO) to a stock concentration of 4 mg/ml. A two-fold dilution series of this DMSO stock was prepared in a 96 well V bottom microtitre plate from rows A to H. A 3 μL volume of these dilutions are transferred to a 96-well flat bottom microtitre assay plate. Controls to monitor the effects of DMSO and media sterility were included. Each well was inoculated with 150 μL of the above diluted culture. The plates were incubated at 37° C. overnight in a humidified incubator. The following morning, the plates were read using a Spectrophotometer at 600 nm wavelength. […] The antibacterial activity (MIC) determined against representative gram-positive (S. aureus, E. faecalis) and gram-negative (E. coli, Aeruginosa, K. pneumoniae, and A. baumannii) pathogen are reported Table 1.

For data set [2], the system named is Enterococcus faecalis ATCC 29212. Briefly: Minimum Inhibitory Concentration (MIC) in LB media.
Description: as §1, §2

Data set [3] concerns Escherichia coli ATCC 25922. Briefly: Minimum Inhibitory Concentration (MIC) in LB media.
Description: as §1, §2

Data set [4] relates to Klebsiella pneumoniae ATCC 13883. Briefly: Minimum Inhibitory Concentration (MIC) in LB media.
Description: as §1, §2

Data set [5] has as its system Pseudomonas aeruginosa ATCC 27853. Briefly: Minimum Inhibitory Concentration (MIC) in LB media.
Description: as §1, §2

The subject of data set [6] is Staphylococcus aureus ATCC 29213. Nature of the data set: Minimum Inhibitory Concentration (MIC) in LB media.
Description: as §1, §2

The test system of another data set is Acinetobacter baumannii. Nature of the data set: MIC90 determination, clinical strains (CLSI). The conditions noted are these: N=38.
A further data set has as its system Citrobacter freundii. Nature of the data set: MIC90 determination, clinical strains (CLSI). The conditions noted are these: N=19.
The test system of a further data set is Enterobacter cloacae. Briefly: MIC90 determination, clinical strains (CLSI). The conditions noted are these: N=26.
In the next data set the test system is Escherichia coli. Nature of the data set: MIC90 determination, clinical strains (CLSI). The conditions noted are these: N=38.
The test system of data set [7] is Klebsiella aerogenes, K. oxytoca. Nature of the data set: MIC90 determination, clinical strains (CLSI). The conditions noted are these: N=17.
In the next data set the test system is Klebsiella pneumoniae. Nature of the data set: MIC90 determination, clinical strains (CLSI). The conditions noted are these: N=86.
In the next data set the test system is Morganella morganii. Nature of the data set: MIC90 determination, clinical strains (CLSI). The conditions noted are these: N=11.
A further data set relates to Proteus mirabilis. Nature of the data set: MIC90 determination, clinical strains (CLSI). The conditions noted are these: N=12.
Data set [8] has as its system Providencia rettgeri, P. stuartii. Nature of the data set: MIC90 determination, clinical strains (CLSI). The conditions noted are these: N=12.
In the next data set the test system is Pseudomonas aeruginosa. Briefly: MIC90 determination, clinical strains (CLSI). The conditions noted are these: N=34.
The test system of a further data set is Serratia marcescens. Nature of the data set: MIC90 determination, clinical strains (CLSI). The conditions noted are these: N=15.
The test system of another data set is CHO-K1 cells. Nature of the data set: In-vitro micronucleus assay. As to the method:
Genetic toxicology studies were performed on the compounds of the present disclosure to assess their ability to cause DNA damage. The in-vitro micronucleus assay measured the concentration (μM) of the compound at which micronuclei formation occurred. A micronuclei formation at lower concentration indicates more genetic damage or genotoxicity.
Micronucleus formation is a hallmark of genotoxicity, and the micronucleus assay is an important component of genotoxicity screening. Micronuclei are chromatin-containing bodies that represent fragments or even whole chromosomes that were not incorporated into a daughter cell nucleus at mitosis. The purpose of the assay is to detect agents that induce chromosome damage leading to the induction of micronuclei in interphase cells. The in vitro micronucleus assay was conducted in CHO-K1 cells according to the procedure described by Diaz, D et al [Mutat Res. 630(1-2):1-13. […] The formation of the micronucleus is identified by image-based high content analysis from binucleated cells.

The target in a further data set is hERG potassium channel (Homo sapiens (Human), UniProt Q12809). Briefly: hERG inhibition assay (Qpatch HTX automated electrophysiology). The conditions noted are these: CHO cell line expressing hERG, whole-cell patch clamp. As to the method:
Electrophysiological recordings were made from a Chinese Hamster Ovary cell line stably expressing the full-length hERG potassium channel. Single cell ionic currents were measured in whole-cell patch clamp configuration at room temperature (21-23° C.) using the Qpatch HTX platform (Sophion). Intracellular solution contained (mM): 120 KF, 20 KCl, 10 EGTA, 10 HEPES and was buffered to pH 7.3. […] Cells were clamped at a holding potential of −80 mV. Cells were stepped to +20 mV for 2 s then −40 mV for 3 s before returning to the holding potential. […] Compounds were then incubated for 2 minutes prior to a second measurement of ion channel current using an identical pulse train.
(Block of hERG is tested as a sign of cardiac risk.)

Chain of hERG potassium channel (Q12809 whole entry): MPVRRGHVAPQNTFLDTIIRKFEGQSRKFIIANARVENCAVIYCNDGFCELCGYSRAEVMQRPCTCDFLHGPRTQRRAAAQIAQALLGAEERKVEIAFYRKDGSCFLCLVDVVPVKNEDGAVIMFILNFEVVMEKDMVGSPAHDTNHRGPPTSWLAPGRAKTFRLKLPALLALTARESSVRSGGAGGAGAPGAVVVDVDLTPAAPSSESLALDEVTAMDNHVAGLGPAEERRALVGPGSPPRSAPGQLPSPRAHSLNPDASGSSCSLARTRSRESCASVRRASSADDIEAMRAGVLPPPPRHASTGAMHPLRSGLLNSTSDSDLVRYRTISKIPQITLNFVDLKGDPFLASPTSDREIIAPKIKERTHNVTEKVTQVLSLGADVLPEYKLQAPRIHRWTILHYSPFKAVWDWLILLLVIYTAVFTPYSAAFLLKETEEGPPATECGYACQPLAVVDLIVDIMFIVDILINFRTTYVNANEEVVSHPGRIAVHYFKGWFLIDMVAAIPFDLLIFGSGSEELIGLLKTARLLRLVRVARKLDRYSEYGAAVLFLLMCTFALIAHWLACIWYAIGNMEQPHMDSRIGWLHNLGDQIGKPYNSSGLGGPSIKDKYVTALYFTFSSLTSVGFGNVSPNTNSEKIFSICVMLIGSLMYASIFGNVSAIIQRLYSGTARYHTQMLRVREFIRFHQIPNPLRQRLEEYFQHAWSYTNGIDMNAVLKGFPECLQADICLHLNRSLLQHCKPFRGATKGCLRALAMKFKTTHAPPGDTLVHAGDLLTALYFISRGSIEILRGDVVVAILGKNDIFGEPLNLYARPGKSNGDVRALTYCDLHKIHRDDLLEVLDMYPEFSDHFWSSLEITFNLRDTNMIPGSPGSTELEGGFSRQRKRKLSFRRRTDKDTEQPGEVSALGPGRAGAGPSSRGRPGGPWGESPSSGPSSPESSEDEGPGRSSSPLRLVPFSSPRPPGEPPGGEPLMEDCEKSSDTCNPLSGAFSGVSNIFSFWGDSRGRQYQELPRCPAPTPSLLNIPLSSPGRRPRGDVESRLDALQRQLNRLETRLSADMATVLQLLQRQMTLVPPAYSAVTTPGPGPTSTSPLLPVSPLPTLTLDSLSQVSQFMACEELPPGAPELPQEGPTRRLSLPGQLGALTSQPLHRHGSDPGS

In general, IC50 refers to the point on the concentration scale where inhibition reaches its midpoint. A higher IC50 goes with lower potency. As to “(S)-5-(((2-((4-Methyl-d3)-3-oxo-1,2,3,4-tetrahydropyrido[2,3-b]pyrazin-6-yl)oxy)ethyl)amino)methyl)-3-(3-oxo-3,4-dihydro-2H-pyrazino[2,3-b][1,4]thiazin-6-yl)oxazolidin-2-one [Compound 10]”, the “Minimum Inhibitory Concentration A. baumannii ATCC 19606” value in data set [1] amounted to 0.06 µg/mL. The “Minimum Inhibitory Concentration E. faecalis ATCC 29212” value in data set [2] is 0.125 µg/mL. The “Minimum Inhibitory Concentration E. coli ATCC 25922” value in data set [3] turned out to be 0.06 µg/mL. Further, the “Minimum Inhibitory Concentration K. pneumoniae ATCC 13883” value in data set [4] was determined as 0.06 µg/mL. Besides, the “Minimum Inhibitory Concentration Aeruginosa ATCC 27853” value in [5] was 1 µg/mL. Besides, the “Minimum Inhibitory Concentration S. aureus ATCC 29213” value in data set [6] was less than 0.015 µg/mL. Besides, in the data set with Acinetobacter baumannii, the “MIC 90 Acinetobacter baumannii” value is 1 µg/mL. In addition, the “MIC 90 Citrobacter freundii” value in the data set on Citrobacter freundii amounted to 2 µg/mL. Also, the “MIC 90 Enterobacter cloacae” value against Enterobacter cloacae was 8 µg/mL. Further, the “MIC 90 Escherichia coli” value with Escherichia coli was determined as 0.5 µg/mL. The “MIC 90 Klebsiella aerogenes, K. oxytoca” value in data set [7] worked out at 2 µg/mL. Further, in the data set on Klebsiella pneumoniae, the “MIC 90 Klebsiella pneumoniae” value was 8 µg/mL. Moreover, the “MIC 90 Morganella morganii” value with Morganella morganii is 1 µg/mL. Besides, the “MIC 90 Proteus mirabilis” value in the data set on Proteus mirabilis was found to be 4 µg/mL. For the same substance, in [8], the “MIC 90 Providencia rettgeri, P. stuartii” value amounted to 1 µg/mL. For the same substance, the “MIC 90 Pseudomonas aeruginosa” value against Pseudomonas aeruginosa is 4 µg/mL. In addition, the “MIC 90 Serratia marcescens” value in the data set on Serratia marcescens stood at 16 µg/mL. In addition, the “genotoxicity risk (in words)” value with CHO-K1 cells is given as “completely devoid of any genotoxicity risk”. In the data set with CHO-K1 cells (CHO-K1 cells), the “% (in-vitro micronucleus assay)” value came out at 0.45% and the “In vitro micronucleus forming concentration” value is greater than 1000 µM. The IC50 against hERG potassium channel is 157 µM.
